# Measurements from publication PMC9016807, “Metabolic, Pharmacokinetic, and Activity Profile of the Liver Stage Antimalarial (RC-12)” (ACS Omega, 2022).
# pIC50: −log10 of the molar value. Entries after “also recorded” stand apart in the source; their conditions may differ. Read-outs that look alike come from different tables or passages of the source.
# Experiments:
# [1] = Metabolism in human liver microsomes; assay type: in vitro ADME; settings: 0.4 mg/mL protein; for microsomal CLint at 1 μM: human, liver microsomes, read-out: CLint of authentic metabolite incubated; for average individual metabolite formed over a 60 min incubation of 1: substrate 1 at 1 μM, percentage of initial substrate concentration, ND = not detected
# Experimental: (§1) Following the protocols described by Charman et al.,[28]1 was incubated at 37 °C with human, rat, and rhesus monkey liver microsomes. For the determination of intrinsic clearance, the substrate concentration was 1 μM and the protein concentration was 0.4 mg/mL; for qualitative metabolite identification studies, the substrate and protein concentrations were 10 μM and 1 mg/mL, respectively. The reaction was initiated by the addition of an NADPH-regenerating buffer system, and the samples were incubated for up to 60 (for Clint determination) or 180 min (for additional metabolite identification). Samples without the test compound and without NADPH were also incubated and used as controls. The reaction was quenched by protein precipitation with the addition of an equal volume of ice-cold acetonitrile solution (containing diazepam as an internal standard), followed by vortexing and centrifugation for 3 min at 10000 rpm. The supernatant was removed and analyzed by LC/MS. LC/MS analysis was conducted using a Waters Micromass Xevo G2 QTOF MS coupled to a Waters Acquity UPLC. For metabolite identification, a Supelco Ascentis Express Amide column (50 × 2.1 mm, 2.7 μm) was used with an acetonitrile–water gradient (containing 0.05% formic acid), a flow rate of 0.4 mL/min, a gradient cycle time of 6 min, and an injection volume of 5 μL. MS analysis was conducted using positive mode electrospray ionization under MSE acquisition mode, which allows simultaneous acquisition of MS spectra at low and high collision energies. The identity of putative metabolites was confirmed by the accurate mass and a comparison of the retention times and MS/MS fragmentation patterns with authentic metabolites where available. For metabolite quantitation, the method described below for the analysis of plasma samples was used.
# [2] = Metabolism in rhesus monkey liver microsomes; assay type: in vitro ADME; settings: 0.4 mg/mL protein; for microsomal CLint at 1 μM: rhesus monkey, liver microsomes, read-out: CLint of authentic metabolite incubated; for average individual metabolite formed over a 60 min incubation of 1: substrate 1 at 1 μM, percentage of initial substrate concentration, ND = not detected
# Experimental: as §1
# [3] = Metabolism in rat liver microsomes; assay type: in vitro ADME; settings: 0.4 mg/mL protein; for microsomal CLint at 1 μM: rat, liver microsomes, read-out: CLint of authentic metabolite incubated; for microsomal CLint at 1 μM / CLint of authentic metabolite incubated: 1 μM substrate, NADPH, 37 °C, 60 min, single incubation; for average individual metabolite formed over a 60 min incubation of 1: substrate 1 at 1 μM, percentage of initial substrate concentration, ND = not detected
# Experimental: as §1
# [4] = tested on: P. vivax liver-stage parasites; test: P. vivax liver-stage in vitro assay, prophylactic mode; assay type: cell-based, Plasmodium vivax
# Experimental: (§2) Compound 1 and its metabolites were tested in both prophylactic and radical cure modes for activity against P. vivax liver-stage parasites.[16],[17] In the prophylactic assay, compounds are added the day after sporozoite invasion into hepatocytes in order to characterize the compound activity against established liver forms with a parasitophorous vacuole membrane (as opposed to activity on preinvasion sporozoites) and prior to complete maturation of hypnozoites into drug-insensitive dormant forms, which appear at about 5 days postinvasion.[18] In the radical cure assay, compounds are added at day 5 postinfection to characterize activity against late-stage schizonts and mature PI4K inhibitor-insensitive hypnozoites.[19] In these experiments, the threshold for activity is 75% inhibition. […] Similarly, as previously described,[20] 10 μM concentrations of 1 and its metabolites were also tested for activity against P. cynomolgi schizont (large forms) and hypnozoite (small forms) liver-stage parasites cultured in rhesus monkey hepatocytes. In these experiments, the threshold for activity is 50% inhibition.
# (§3) Compounds were prepared as 20 mM stock solutions in DMSO and tested in an eight-point semilog (1/3) dilution series from 20 μM in 384-well assay plates in both prophylactic and radical cure mode against P. vivax liver-stage parasites as previously described.[16] Following ethical approval from the Institutional Ethics Committee of the Thai Ministry of Public Health, the Ethical Review Committee of Faculty of Tropical Medicine, Mahidol University (TMEC 11-008 and 14-016), the Oxford Tropical Medicine Ethical Committee, Oxford University, England (OxTREC 17-11 and 40–14), and the Cambodian National Ethics Committee for Health Research (101NECHR), isolates of P. vivax infected blood were collected from patent volunteers in Tak province, Thailandm and Mondulkiri province, Cambodia. Samples were collected by venipuncture into heparin tubes prior to replacement of patient serum with nonimmune AB human serum and feeding to laboratory-reared Anopheles dirus cracens or An. dirus A mosquitoes via water-jacket artificial membrane feeders or the Hemotek insect feeding system (Hemotek, Blackburn, UK) set to maintain the bloodmeal temperature at 37 °C. […] Cryopreserved human hepatocytes (BioIVT, Baltimore, Maryland, USA) were thawed into InVitroGro CP Medium (BioIVT), quantified for viability by trypan blue dye exclusion, diluted to 800–1000 live cells per microliter, and 18000 live cells were plated into each well of a collagen-coated 384-well plate (Greiner, Monroe, NC, USA) by a 16-channel pipet (Finnpipette, Thermo Fisher Scientific, Waltham, MA). […]
# [5] = tested on: P. vivax liver-stage parasites; test: P. vivax liver-stage in vitro assay, radical cure mode; assay type: cell-based, Plasmodium vivax; settings: Plasmodium vivax
# Experimental: as §2, §3
# [6] = tested on: P. cynomolgi schizont (large forms) and hypnozoite (small forms) liver-stage parasites; test: P. cynomolgi liver-stage in vitro assay in rhesus monkey hepatocytes; assay type: cell-based; settings: Plasmodium cynomolgi, Hepatocyte, in Macaca mulatta
# Experimental: as §2
# [7] = Pharmacokinetics in rats after IV and PO administration; assay type: in vivo, male Sprague–Dawley rats; settings: for metabolite in urine, percentage of the 1 dose: after IV administration of 1; for dose excreted: male, Sprague-Dawley, rat, urine, after oral administration of 1 at 27 mg/kg, read-out: recovery of metabolite in urine, percentage of the 1 dose
# Experimental: Animal studies were conducted using established procedures in accordance with the Australian Code of Practice for the Care and Use of Animals for Scientific Purposes, and the study protocols were reviewed and approved by the Monash Institute of Pharmaceutical Sciences Animal Ethics Committee. The study was conducted in overnight-fasted male Sprague–Dawley rats weighing 266–292 g. Rats had access to water ad libitum throughout the pre- and postdose sampling period, and access to food was reinstated 4 h postdose. Compound 1 was administered intravenously as a 10 min constant rate infusion via an indwelling jugular vein cannula (1 mL per rat, n = 5 rats) and orally by gavage (10 mL/kg per rat, n = 2–3 rats), and samples of arterial blood and total urine were collected up to 24 h postdose. Arterial blood was collected directly into borosilicate vials (at 4 °C) containing heparin. Blood samples were centrifuged, and the supernatant plasma was removed and stored frozen (−80 °C) until analysis by LC-MS. Plasma samples and calibration standards (prepared in blank rat plasma) were processed by protein precipitation with a 2-fold volume of acetonitrile. LC-MS analysis was conducted using a Waters Micromass Quattro Premier triple-quadrupole mass spectrometer coupled to a Waters Acquity UPLC with a Phenomenex C18 Kinetex column (50 × 2.1 mm, 2.7 μm). Elution was achieved using a methanol–water gradient (containing 8.2 mM formic acid and 1.25 mM ammonium formate) with a flow rate of 0.6 mL/min, a gradient cycle time of 6 min, and an injection volume of 2 μL. MS detection was conducted using positive electrospray ionization with multiple reaction monitoring. Transitions (m/z), cone voltages (V), and CID voltages (V) were as follows: 1, 430.26 > 99.93, 40, 20; 2, 416.27 > 99.80, 30, 20; 3, 402.22 > 99.93, 35, 20; 4, 388.23 > 99.86, 35, 20; 5: 374.25 > 72.01, 35, 25; diazepam (285.25 > […], 40, 25) (used as an internal standard). The quantitation range in plasma was typically 1–10000 ng/mL, and the accuracy and precision were within ±10% and <10%, respectively, for each analyte. Urine samples were analyzed using either a 20- or 200-fold dilution with 50% acetonitrile and assayed against calibration standards prepared in the same solvent.
# [8] = 1 μM substrate, NADPH, 37 °C, 60 min, single incubation
# [9] = control drug, read-out: IC50 (hypnozoites)
# [10] = control drug, read-out: IC50 (schizonts)
"microsomal CLint at 1 μM [1, 8] [µL/min/mg]","microsomal CLint at 1 μM [2, 8] [µL/min/mg]",average individual metabolite formed over a 60 min incubation of 1 [2] [%],microsomal CLint at 1 μM [3] [µL/min/mg],average individual metabolite formed over a 60 min incubation of 1 [3] [%],SMILES,also measured
< 3,12,2.4,45,6.4,"CCNCCN(CCN(CC)CC)c1cc(OC)c(O)cc1Br [Compound 4, N-[2-(Ethylamino)ethyl]-N-[2-(diethylamino)ethyl]-2-bromo-4-hydroxy-5-methoxyaniline 1,5-Naphthalenedisulfonate]","pIC50 ([4]; Plasmodium vivax, n = 3, read-out: IC50 against schizonts): 5.58; pIC50 ([5]; n = 2, read-out: IC50 against schizonts): 4.81; inhibition at 10 µM ([6]; 10 μM, first run, read-out: inhibition of growth of the schizont (large forms)): 70%"
,,,,,COc1cc(NC(C)CCCN)c2ncccc2c1 (centres unmarked) [primaquine],pIC50 ([6]; read-out: IC50 against the hypnozoite (small forms)): 5.57; pIC50 ([6]; read-out: IC50 against the schizont (large forms)): 5.96
6,7.3,1.4,4.4,25,"CCNCCN(CCNCC)c1cc(OC)c(OC)cc1Br [Compound 5, N,N-Bis[2-(ethylamino)ethyl]-2-bromo-4,5-dimethoxyaniline 1,5-naphthalenedisulfonate]","metabolite in urine, percentage of the 1 dose [7]: 1.2%; dose excreted [7]: 3%"
,,,,,"Br.Br.Br.CCN(CC)CCN(CCN(CC)CC)c1cc(O)c(OC)cc1Br [Compound 6, N,N-Bis[2-(diethylamino)ethyl]-2-bromo-5-hydroxy-4-methoxyaniline trihydrobromide]","CLint of authentic metabolite incubated [1, 8]: very unstable; also recorded: highly unstable in all species; CLint of authentic metabolite incubated [2, 8]: very unstable; also recorded: highly unstable in all species; CLint of authentic metabolite incubated [3]: very unstable; also recorded: highly unstable in all species"
< 3,19,20,24,64,"CCNCCN(CCN(CC)CC)c1cc(OC)c(OC)cc1Br [Compound 3, N-[2-(Ethylamino)ethyl]-N-[2-(diethylamino)ethyl]-2-bromo-4,5-dimethoxyaniline 1,5-Naphthalenedisulfonate]","average individual metabolite formed over a 60 min incubation of 1 [1]: 1.6%; metabolite in urine, percentage of the 1 dose [7]: 1.7%; dose excreted [7]: 3.3%"
,,,,,"CNC(=O)c1ccc(-c2cnc3cnc(C(=O)N(C)c4ccc(Cl)cc4)cn23)cc1 [KDU691, reference compound]","pIC50 [4, 9]: 7.27; pIC50 [4, 10]: 7.94"
< 3,8,15,264,,"CCN(CC)CCN(CCN(CC)CC)c1cc(OC)c(O)cc1Br [Compound 2, N,N-Bis[2-(diethylamino)ethyl]-2-bromo-4-hydroxy-5-methoxyaniline 1,5-Naphthalenedisulfonate]",average individual metabolite formed over a 60 min incubation of 1 [1]: 0.2%; CLint of authentic metabolite incubated [3]: highly unstable
,,,,,"CC[C@@]1([C@@H]2O[C@@H]([C@H]3O[C@@](O)(CO)[C@H](C)C[C@@H]3C)C[C@@H]2C)CC[C@H]([C@]2(C)CC[C@]3(C[C@H](O)[C@@H](C)[C@@H]([C@@H](C)[C@@H](OC)[C@H](C)C(=O)O)O3)O2)O1 [monensin, reference compound]","pIC50 [5, 9]: 6.99; pIC50 [5, 10]: 7.91"
